Patent US20240245677A1, “SELECTED COMPOUNDS FOR TARGETED DEGRADATION OF BRD9” (C4 THERAPEUTICS, INC., priority 2021, published 2024)

Experiments:
GSPT1 = target: T1, GSPT1 (Homo sapiens, UniProt P15170+Q96SW2); test: GSPT1 HiBiT degradation assay in HEK293T.114 cells; format: cell-based; conditions: 6 hours
T1 construct: CRISPR-edited to endogenously express HiBiT tagged GSPT1; host or cells: HEK293T.114
From the text: This assay evaluated the off-target degradation of the cereblon neosubstrate, Eukaryotic peptide chain release factor GTP-binding subunit ERF3A (GSPT1), induced by treatment with Compound 1 as measured by luminescence using Nano-Glo HiBiT® Lytic Assay System in 293T cells CRISPR-edited to endogenously express HiBiT tagged GSPT1.
Nano-Glo® HiBiT Lytic Assay System was purchased from Promega (Catalog No. N3050, Madison, WI, USA). HEK293T cells were obtained from ATCC (Catalog No. CRL-3216, Manassas, VA, USA), and maintained in DMEM medium (Catalog No. 11995065, ThermoFischer Scientific, Waltham, MA, USA) supplemented with 10% heat inactivated FBS (Catalog No. 16000-044, Gibco, Grand Island, NY, USA) at 37° C. in an atmosphere of 5% CO2 in air. The HiBiT polypeptide tag was introduced into the N-terminus of the endogenous GSPT1 locus by CRISPR-Cas9 to produce the HEK293T.114 modified cell line. The HiBiT polypeptide allows reconstitution of NanoBiT enzyme following cell lysis and addition of the complementing LgBiT polypeptide that activates substrate to produce a luminescent signal that is directly proportional to the amount of HiBiT-tagged GSPT1.
HEK293T.114 cells were routinely sub-cultured to maintain cell density between 30-80% confluence, not to exceed 20 passages. Cells were washed with PBS, trypsinized for 5 minutes at 37° C., and resuspended in fresh growth media without phenol red. An aliquot was diluted 2× with Trypan Blue solution 0.4% (Catalog No. 15250061, ThermoFisher Scientific, Waltham, MA, USA) and cell count determined. Cell concentration was adjusted with growth media without phenol red to 2×10^5 cells/mL.
The 10 mM DMSO stock solutions of Compound 1 or CC0885 were serially diluted (half log) in DMSO to generate 11-point dose series (10000, 3160, 1000, 316, 100, 31.6, 10, 3.2, 1, 0.32, 0.1 μM) in an acoustic ready 384-well low dead volume microplate (Catalog No. LP-0200, Beckman Coulter Life Sciences, Indianapolis, IN, USA). Using an Echo 550 Acoustic Liquid Handler (Beckman Coulter Life Sciences, Indianapolis, IN, USA), 30 nL of serially diluted compound solutions were dispensed in duplicate to each 384-well black TC-treated microplate (Catalog No. 3571, Corning, Glendale, CA, USA). 30 nL DMSO was transferred to all control wells.
30 μL of HEK293T.114 cells suspended in growth media without phenol red at 2×10^5 cells/mL (6000 cells/well) were dispensed using a Multidrop Combi Reagent Dispenser (Catalog No. 5840300, ThermoFisher Scientific, Waltham, MA, USA) to each well of columns 1-23 of 384-well black TC-treated microplates containing duplicate concentration range of test compounds and DMSO controls. 30 μL of media was dispensed to column 24 as background positive control (P). Plates were spun briefly at 1000 rpm and cells were incubated at 37° C., 5% CO2 for 6 hours. Final concentration of DMSO was 0.1% for all samples.
Cellular GSPT1 protein level was determined based on quantification of HiBiT using Nano-Glo® HiBiT Lytic Assay System (Promega). 30 μL Nano-Glo Lytic Assay reagents were added to each well of columns 1-23 and luminescence was acquired on EnVision® Multilabel Reader (Catalog No. 2104-0010, Perkin Elmer Inc., Dumfries, VA, USA). Column 24 (cells without Nano-Glo reagent addition) was used as plate background or positive control (P). Cells treated in the absence of the test compound (0.1% DMSO vehicle) were the negative control (N)/
Percent response of compound-treated samples (T) were calculated by normalizing to the DMSO treated negative (N) controls on the same microtiter plate after background (i.e., positive control) signal subtraction:
Curve fit and DC50 (concentration that degrades 50% GSPT1) determination was performed by 4 parametric logistic fit analysis using software such as GraphPad Prism software (GraphPad Software, LLC, San Diego, CA, USA). […]

[1] = Variable temperature XRPD (VT-XRPD) experiments; format: physicochemical
Protocol: To investigate form conversion behavior, variable temperature XRPD experiments were conducted for hydrate Pattern A, hydrate Pattern C, hydrate Pattern F and hetero-solvate Pattern L.
Based on DSC and TGA results, variable temperature XRPD was conducted for Pattern A, at different temperatures, including 25° C., 110° C. and 25° C.
Based on DSC and TGA results, variable temperature XRPD was conducted for Pattern B, at different temperatures, including 25° C., 80° C., 130° C. and 25° C. The sample after heating-cooling was placed at 25° C./75% RH condition for 1 day and investigated by XRPD.
Based on DSC and TGA results, variable temperature XRPD was conducted for Pattern C, at different temperatures, including 25° C., 110° C. and 25° C.
Based on DSC and TGA results, variable temperature XRPD was conducted for Pattern F at different temperatures, including 25° C., 110° C. and 25° C. The sample after heating-cooling was placed at 25° C./75% RH condition for 1 day and investigated by XRPD.
Based on DSC and TGA results, variable temperature XRPD was conducted for Pattern L, at different temperatures, including 25° C., 100° C., 140° C., 180° C. and 25° C. The sample after heating-cooling was placed at 25° C./92% RH condition for 24 h and investigated by XRPD.

in vitro = conditions: plasma, 3 h, 2 µM
Protocol: Plasma protein binding (PPB) of Compound 1 was evaluated in plasma from mice, rats, dogs, cynomolgus monkeys, and humans using ultracentrifugation.
Frozen plasma from CD-1 mice, Sprague-Dawley rats, beagle dogs, cynomolgus monkeys, and humans was purchased and stored at ≤−30° C. On the day of study, plasma samples of CD-1 mice, Sprague-Dawley rats, beagle dogs, cynomolgus monkeys and humans were thawed under running cold tap water and centrifuged to remove any particulates.
For the internal standard, telmisartan, a 1 mg/mL solution was prepared by dissolving 1.4 mg of telmisartan in 1.4 mL of DMSO, and stored at 4° C.
The 10 mM stock solution of each test compound was used to prepare 400 μM intermediate stocks in methanol. Then, a 2 μM working stock of each test compound was prepared for plasma from each species (mouse, rat, dog, monkey, and human) by spiking 12 μL of the 400 μM intermediate stock for each test compound into 2400 μL of thawed and prepared plasma from a test species.
400 μL of blank plasma for each species was transferred to a 0.5 mL Beckman tube (Part No. 343776, Beckman Coulter Life Sciences, Indianapolis, IN, USA) and centrifuged for 3 hours at 627000×g at 37° C. The supernatant was removed and kept at room temperature.
To prepare for ultracentrifugation, the rotor of the centrifuge was placed into an incubator and warmed up to 37° C. before centrifugation. The vacuum switch of the OPTIMA™ MAX-TL Ultracentrifuge (Beckman Coulter Life Sciences, Indianapolis, IN, USA) was turned on and the vacuum was reduced to less than 10 microns to warm up the system. The ultracentrifuge's parameters were set to the following: Temperature—37° C.; Time—3 hours; and Speed—627000×g. For each species and each test compound, 2.4 mL of working stock was mixed and pre-incubated for 45 minutes at 37° C. Then, 60 μL was separated and precipitated with 200 μL of acetonitrile containing internal standard and labeled as (TO), and 0.4 mL (triplicates) were transferred to Beckman 2 mL tubes (Part No. 344625, Beckman Coulter Life Sciences, Indiana, IN, USA).
For each species and each test compound, the triplicate 0.4 mL sample tubes were centrifuged for 3 hours at 627000×g at 37° C. […] At 45 minutes, 60 μL was separated, precipitated with 200 μL of acetonitrile containing internal standard and labelled as (T45). After completion of 3 hours, 60 μL of incubated samples were separated, precipitated with acetonitrile containing internal standard, and labeled as (T3).
After completing the 3 hours of centrifugation, 30 μl of the top fraction of supernatant from each sample tube was removed (free fraction) and precipitated with acetonitrile containing internal standard (labeled as top sample).
After removing 30 μL of the top fraction, remaining top and bottom layer were mixed thoroughly to make a uniform mixture. From this mixture, 30 μL of bottom sample was collected and precipitated with acetonitrile containing internal standard (labelled as bottom sample).
Matrix matching was done for crashed stability samples (TO, T45 and T3 samples) by adding 30 μL of a 50:50 mixture of blank plasma supernatant and phosphate-buffered saline (PBS), and for top and bottom samples, by adding 30 μL of blank plasma (kept at room temperature).
All the stability samples and centrifuged samples were vortexed at 1000 rpm for 5 minutes and centrifuged at 4000 rpm for 10 minutes. Supernatant from each sample was separated, diluted 2-fold with water, and analyzed in LC-MS/MS.
Samples (supernatant-free fraction and total plasma) were analyzed by LCMS-MS (no standards).

T1 sequence (P15170 whole entry): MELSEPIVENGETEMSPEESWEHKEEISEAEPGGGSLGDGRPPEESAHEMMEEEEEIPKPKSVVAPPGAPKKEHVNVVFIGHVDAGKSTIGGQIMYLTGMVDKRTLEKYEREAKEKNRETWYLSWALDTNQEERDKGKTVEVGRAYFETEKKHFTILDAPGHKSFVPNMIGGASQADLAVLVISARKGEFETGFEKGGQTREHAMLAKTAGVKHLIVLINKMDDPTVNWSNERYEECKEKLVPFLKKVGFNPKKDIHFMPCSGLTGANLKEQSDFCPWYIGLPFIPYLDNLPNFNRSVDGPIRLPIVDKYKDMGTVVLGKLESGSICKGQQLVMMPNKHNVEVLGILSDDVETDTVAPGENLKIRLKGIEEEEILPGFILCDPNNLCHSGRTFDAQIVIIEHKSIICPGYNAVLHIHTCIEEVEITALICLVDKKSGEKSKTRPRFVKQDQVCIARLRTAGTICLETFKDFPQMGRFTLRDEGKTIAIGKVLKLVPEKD
T1 sequence (Q96SW2 whole entry): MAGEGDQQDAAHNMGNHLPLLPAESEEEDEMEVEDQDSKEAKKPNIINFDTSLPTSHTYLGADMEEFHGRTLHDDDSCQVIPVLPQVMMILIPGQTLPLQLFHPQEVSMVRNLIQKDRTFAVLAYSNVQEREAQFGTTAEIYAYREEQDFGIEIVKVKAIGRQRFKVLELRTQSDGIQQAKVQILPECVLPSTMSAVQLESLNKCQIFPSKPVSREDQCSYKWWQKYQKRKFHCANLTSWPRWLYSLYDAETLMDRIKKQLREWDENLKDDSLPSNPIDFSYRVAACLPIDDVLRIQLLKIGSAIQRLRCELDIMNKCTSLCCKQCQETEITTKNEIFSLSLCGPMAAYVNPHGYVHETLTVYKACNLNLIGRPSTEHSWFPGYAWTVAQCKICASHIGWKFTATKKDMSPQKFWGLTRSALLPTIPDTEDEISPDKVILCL
T1 sequence (Q16531 2-1140 partner limits assumed): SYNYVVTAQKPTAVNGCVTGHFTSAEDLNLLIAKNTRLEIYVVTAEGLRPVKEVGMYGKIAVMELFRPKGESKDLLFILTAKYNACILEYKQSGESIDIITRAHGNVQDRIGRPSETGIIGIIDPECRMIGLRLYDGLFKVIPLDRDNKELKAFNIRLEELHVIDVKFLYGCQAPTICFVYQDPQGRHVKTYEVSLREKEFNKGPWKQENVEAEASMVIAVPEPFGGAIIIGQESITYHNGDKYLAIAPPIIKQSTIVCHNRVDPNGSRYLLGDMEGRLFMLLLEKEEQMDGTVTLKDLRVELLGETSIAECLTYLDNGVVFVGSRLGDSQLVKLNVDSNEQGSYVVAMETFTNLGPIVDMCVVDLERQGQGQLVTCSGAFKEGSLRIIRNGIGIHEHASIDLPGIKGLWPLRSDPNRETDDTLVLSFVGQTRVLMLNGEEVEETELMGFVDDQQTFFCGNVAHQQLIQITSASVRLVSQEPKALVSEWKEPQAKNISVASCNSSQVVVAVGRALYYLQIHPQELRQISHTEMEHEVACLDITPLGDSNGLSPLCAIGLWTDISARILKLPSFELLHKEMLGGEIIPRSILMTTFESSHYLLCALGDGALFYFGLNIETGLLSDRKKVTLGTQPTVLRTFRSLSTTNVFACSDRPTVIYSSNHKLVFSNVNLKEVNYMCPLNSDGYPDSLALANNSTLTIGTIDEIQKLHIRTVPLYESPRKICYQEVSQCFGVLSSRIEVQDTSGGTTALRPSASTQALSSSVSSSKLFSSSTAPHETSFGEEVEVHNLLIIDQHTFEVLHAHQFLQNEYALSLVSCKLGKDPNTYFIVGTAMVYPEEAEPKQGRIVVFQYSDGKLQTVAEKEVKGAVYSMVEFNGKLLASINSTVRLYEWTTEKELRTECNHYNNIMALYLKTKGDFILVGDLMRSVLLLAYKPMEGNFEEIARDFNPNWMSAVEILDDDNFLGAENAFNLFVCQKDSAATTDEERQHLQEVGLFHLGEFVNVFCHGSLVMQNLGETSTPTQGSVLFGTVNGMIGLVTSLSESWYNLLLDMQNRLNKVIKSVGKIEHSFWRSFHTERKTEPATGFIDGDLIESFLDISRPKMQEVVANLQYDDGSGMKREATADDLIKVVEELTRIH

Cc1ccc(NC(=O)NCc2ccc3c(c2)CN(C2CCC(=O)NC2=O)C3=O)cc1Cl (stereo not shown) [CC-885, reference compound]
% GSPT1 Remaining, Mean (GSPT1; 0.100 nM): 106.2%
% GSPT1 Remaining, Mean (GSPT1; 0.316 nM): 99.3%
% GSPT1 Remaining, Mean (GSPT1; 1.00 nM): 96.4%
% GSPT1 Remaining, Mean (GSPT1; 3.15 nM): 101.9%
% GSPT1 Remaining, Mean (GSPT1; 10.0 nM): 107.2%
% GSPT1 Remaining, Mean (GSPT1; 31.5 nM): 102.5%
% GSPT1 Remaining, Mean (GSPT1; 100 nM): 102.6%
% GSPT1 Remaining, Mean (GSPT1; 317 nM): 100.9%
% GSPT1 Remaining, Mean (GSPT1; 1000 nM): 101.1%
% GSPT1 Remaining, Mean (GSPT1; 3161 nM): 103.2%
% GSPT1 Remaining, Mean (GSPT1; 9990 nM): 98.8%
Mean Emax (%) ± SD (GSPT1; GSPT1-HiBiT, HEK293T.114 cells): 92.85 ± 1.30%
DC50 (GSPT1; GSPT1-HiBiT, HEK293T.114 cells, read-out: Geometric Mean DC50): 1.93 nM
degradation of GSPT1 induced (GSPT1; positive control): > 95%

COc1cc(-c2cn(C)c(=O)c(C)c2C)cc(OC)c1CN1CC[C@H](N2CCN(c3ccc(N[C@H]4CCC(=O)NC4=O)cc3F)CC2)C(F)(F)C1 [Pattern L]
XRPD ([1]; 25° C. (start)): Pattern L
XRPD ([1]; 25° C./92.5% RH hold 1 day): Pattern M
XRPD ([1]; Cool to 25° C.): Pattern M
XRPD ([1]; Heat to 100° C.): Pattern L

COc1cc(-c2cn(C)c(=O)c(C)c2C)cc(OC)c1CN1CC[C@H](N2CCN(c3ccc(N[C@H]4CCC(=O)NC4=O)cc3F)CC2)C(F)(F)C1 [Pattern F]
XRPD ([1]; 25° C. (start)): Pattern F
XRPD ([1]; Cool to 25° C.): Pattern H
XRPD ([1]; Heat to 110° C.): Pattern H

COc1cc(-c2cn(C)c(=O)c(C)c2C)cc(OC)c1CN1CC[C@H](N2CCN(c3ccc(N[C@H]4CCC(=O)NC4=O)cc3F)CC2)C(F)(F)C1 [Pattern B]
XRPD ([1]; 25° C. (start)): Pattern B

CC(=O)CC(c1ccccc1)c1c(O)c2ccccc2oc1=O (stereo not shown) [Warfarin, reference compound]
% Remaining at 3 hours (in vitro; CD-1, mouse): 107.21%
% Remaining at 3 hours (in vitro; Sprague-Dawley, rat): 88.82%
% Remaining at 3 hours (in vitro; beagle, dog): 111.42%
% Remaining at 3 hours (in vitro; human): 91.67%
% Remaining at 3 hours (in vitro; monkey): 115.61%

COc1cc(-c2cn(C)c(=O)c(C)c2C)cc(OC)c1CN1CC[C@H](N2CCN(c3ccc(N[C@H]4CCC(=O)NC4=O)cc3F)CC2)C(F)(F)C1 [Pattern C]
XRPD ([1]; 25° C. (start)): Pattern C
XRPD ([1]; 25° C./50% RH hold 2 h): Pattern C
XRPD ([1]; Cool to 25° C.): Metastable Pattern I
XRPD ([1]; Heat to 110° C.): Metastable Pattern I
